Measurements: ChEMBL document CHEMBL3046469, “Fungicidal Activities of 2-(Substituted Phenoxymethyl)phenyl-2-methoxyiminoacaetamide Derivatives” (1998)

Legend:
Type in all cases: functional
Thanatephorus cucumeris [1] = assay: Fungicidal activity against Thanatephorus cucumeris assessed as rice sheath blight disease control at 7.8 ppm foliar application for 24 hr before inoculation at 26 +/- 2 degC measured after 5 days by preventive manner
Pyricularia oryzae [2] = assay: Fungicidal activity against Magnaporthe oryzae assessed as rice blast disease control at 2 ppm foliar application for 24 hr before inoculation at 27 +/- 2 degC measured after 5 days by preventive manner
Podosphaera fuliginea [3] = assay: Fungicidal activity against Podosphaera fuliginea assessed as cucumber powdery mildew control at 7.8 ppm foliar application 24 hr before inoculation at 23 +/- 2 degC by preventive manner
[4] = system: Blumeria graminis f. sp. tritici; assay: Fungicidal activity against Blumeria graminis f. sp. tritici assessed as wheat powdery mildew disease control at 2 ppm foliar application for 48 hr before inoculation by preventive manner
[5] = system: Pseudoperonospora cubensis; assay: Fungicidal activity against Pseudoperonospora cubensis assessed as cucumber downy mildew disease control at 125 ppm foliar application 24 hr before inoculation onto the abaxial(untreated) surface of leaf by preventive manner
[6] = system: Pseudoperonospora cubensis; assay: Fungicidal activity against Pseudoperonospora cubensis assessed as cucumber downy mildew disease control at 7.8 ppm foliar application 24 hr before inoculation onto the adaxial(treated) surface of leaf by preventive manner
Botrytis cinerea [7] = assay: Fungicidal activity against Botryotinia fuckeliana assessed as cucumber gray mold disease control at 31.3 ppm foliar application […] at 22 +/- 2 degC by preventive manner
Pyricularia oryzae [8] = assay: Fungicidal activity against Magnaporthe oryzae assessed as rice blast disease control at 7.8 ppm foliar application for 24 hr before inoculation at 27 +/- 2 degC measured after 5 days by preventive manner
Botrytis cinerea [9] = assay: Fungicidal activity against Botryotinia fuckeliana assessed as cucumber gray mold disease control at 7.8 ppm foliar application […] at 22 +/- 2 degC by preventive manner
Thanatephorus cucumeris [10] = assay: Fungicidal activity against Thanatephorus cucumeris assessed as rice sheath blight disease control at 125 ppm foliar application for 24 hr before inoculation at 26 +/- 2 degC measured after 5 days by preventive manner
[11] = system: Pseudoperonospora cubensis; assay: Fungicidal activity against Pseudoperonospora cubensis assessed as cucumber downy mildew disease control at 7.8 ppm foliar application 24 hr before inoculation onto the abaxial(untreated) surface of leaf by preventive manner
Pyricularia oryzae [12] = assay: Fungicidal activity against Magnaporthe oryzae assessed as rice blast disease control at 125 ppm foliar application for 24 hr before inoculation at 27 +/- 2 degC measured after 5 days by preventive manner
Botrytis cinerea [13] = assay: Fungicidal activity against Botryotinia fuckeliana assessed as cucumber gray mold disease control at 2 ppm foliar application […] at 22 +/- 2 degC by preventive manner
[14] = system: Pseudoperonospora cubensis; assay: Fungicidal activity against Pseudoperonospora cubensis assessed as cucumber downy mildew disease control at 2 ppm foliar application 24 hr before inoculation onto the adaxial(treated) surface of leaf by preventive manner
Pyricularia oryzae [15] = assay: Fungicidal activity against Magnaporthe oryzae assessed as rice blast disease control at 125 ppm foliar application for 24 hr after inoculation at 27 +/- 2 degC measured after 5 days by curative manner
Pyricularia oryzae [16] = assay: Fungicidal activity against Magnaporthe oryzae assessed as rice blast disease control at 31.3 ppm foliar application for 24 hr before inoculation at 27 +/- 2 degC measured after 5 days by preventive manner
Podosphaera fuliginea [17] = assay: Fungicidal activity against Podosphaera fuliginea assessed as cucumber powdery mildew control at 31.3 ppm foliar application 24 hr before inoculation at 23 +/- 2 degC by preventive manner
Podosphaera fuliginea [18] = assay: Fungicidal activity against Podosphaera fuliginea assessed as cucumber powdery mildew control at 7.8 ppm foliar application 24 hr after inoculation at 23 +/- 2 degC by curative manner
Botrytis cinerea [19] = assay: Fungicidal activity against Botryotinia fuckeliana assessed as cucumber gray mold disease control at 125 ppm foliar application […] at 22 +/- 2 degC by curative manner
Botrytis cinerea [20] = assay: Fungicidal activity against Botryotinia fuckeliana assessed as cucumber gray mold disease control at 125 ppm foliar application […] at 22 +/- 2 degC by preventive manner
Podosphaera fuliginea [21] = assay: Fungicidal activity against Podosphaera fuliginea assessed as cucumber powdery mildew control at 2 ppm foliar application 24 hr before inoculation at 23 +/- 2 degC by preventive manner
[22] = system: Pseudoperonospora cubensis; assay: Fungicidal activity against Pseudoperonospora cubensis assessed as cucumber downy mildew disease control at 31.3 ppm foliar application 24 hr before inoculation onto the abaxial(untreated) surface of leaf by preventive manner
Podosphaera fuliginea [23] = assay: Fungicidal activity against Podosphaera fuliginea assessed as cucumber powdery mildew control at 125 ppm foliar application 24 hr before inoculation at 23 +/- 2 degC by preventive manner
[24] = system: Blumeria graminis f. sp. tritici; assay: Fungicidal activity against Blumeria graminis f. sp. tritici assessed as wheat powdery mildew disease control at 31.3 ppm foliar application for 48 hr before inoculation by preventive manner
[25] = system: Pseudoperonospora cubensis; assay: Fungicidal activity against Pseudoperonospora cubensis assessed as cucumber downy mildew disease control at 125 ppm foliar application 24 hr before inoculation onto the adaxial(treated) surface of leaf by preventive manner
[26] = system: Blumeria graminis f. sp. tritici; assay: Fungicidal activity against Blumeria graminis f. sp. tritici assessed as wheat powdery mildew disease control at 125 ppm foliar application for 48 hr after inoculation by curative manner
Podosphaera fuliginea [27] = assay: Fungicidal activity against Podosphaera fuliginea assessed as cucumber powdery mildew control at 125 ppm foliar application 24 hr after inoculation at 23 +/- 2 degC by curative manner
[28] = system: Blumeria graminis f. sp. tritici; assay: Fungicidal activity against Blumeria graminis f. sp. tritici assessed as wheat powdery mildew disease control at 125 ppm foliar application for 48 hr before inoculation by preventive manner
Thanatephorus cucumeris [29] = assay: Fungicidal activity against Thanatephorus cucumeris assessed as rice sheath blight disease control at 31.3 ppm foliar application for 24 hr before inoculation at 26 +/- 2 degC measured after 5 days by preventive manner
[30] = system: Blumeria graminis f. sp. tritici; assay: Fungicidal activity against Blumeria graminis f. sp. tritici assessed as wheat powdery mildew disease control at 7.8 ppm foliar application 48 24 hr before inoculation by preventive manner
[31] = system: Pseudoperonospora cubensis; assay: Fungicidal activity against Pseudoperonospora cubensis assessed as cucumber downy mildew disease control at 31.3 ppm foliar application 24 hr before inoculation onto the adaxial(treated) surface of leaf by preventive manner

Measured: Activity

CNC(=O)/C(=N/OC)c1ccccc1COc1ccccc1C(F)(F)F
90%: Thanatephorus cucumeris [1] | Pyricularia oryzae [2] | Podosphaera fuliginea [3] | [4] | [5] | [6] | Botrytis cinerea [7]

CNC(=O)/C(=N/OC)c1ccccc1COc1cccc(C(F)(F)F)c1
90%: Pyricularia oryzae [8] | Podosphaera fuliginea [3] | Botrytis cinerea [9] | [4] | Thanatephorus cucumeris [10] | [11] | [6]

CNC(=O)/C(=N/OC)c1ccccc1COc1ccc(C)cc1C
90%: Thanatephorus cucumeris [1] | Pyricularia oryzae [12] | Podosphaera fuliginea [3] | Botrytis cinerea [13] | [4] | [5] | [14]

CO/N=C(/C(=O)N(C)C)c1ccccc1COc1cc(C)ccc1C
90%: Pyricularia oryzae [15] | Pyricularia oryzae [16] | Podosphaera fuliginea [17] | Podosphaera fuliginea [18] | Botrytis cinerea [20]
<90%: Botrytis cinerea [19]

CNC(=O)/C(=N/OC)c1ccccc1COc1ccc(Cl)cc1Cl
<90%: Thanatephorus cucumeris [10]
90%: Pyricularia oryzae [16] | Podosphaera fuliginea [21] | Botrytis cinerea [13] | [4] | [22] | [6]

CO/N=C(/C(=O)NOC)c1ccccc1COc1cc(C)ccc1C
<90%: Pyricularia oryzae [15] | Podosphaera fuliginea [23] | Botrytis cinerea [19]
90%: Pyricularia oryzae [12] | Podosphaera fuliginea [18] | Botrytis cinerea [20]

CNC(=O)/C(=N/OC)c1ccccc1COc1cccc(C)c1C
90%: Pyricularia oryzae [2] | Podosphaera fuliginea [17] | [24] | Thanatephorus cucumeris [10] | [5] | [14] | Botrytis cinerea [7]

CNC(=O)/C(=N/OC)c1ccccc1COc1c(Cl)cccc1Cl
90%: Pyricularia oryzae [12] | [24] | Botrytis cinerea [20]
<90%: Podosphaera fuliginea [23] | Thanatephorus cucumeris [10] | [5] | [25]

CNC(=O)/C(=N\OC)c1ccccc1COc1cccc(OC(C)C)c1
90%: Pyricularia oryzae [12] | Podosphaera fuliginea [17] | [26] | Podosphaera fuliginea [27] | Botrytis cinerea [20]
<90%: Pyricularia oryzae [15] | [28] | Botrytis cinerea [19]

CNC(=O)/C(=N/OC)c1ccccc1COc1ccccc1C
90%: Pyricularia oryzae [2] | Podosphaera fuliginea [21] | Botrytis cinerea [9] | [4] | Thanatephorus cucumeris [29] | [5] | [14]

CNC(=O)/C(=N/OC)c1ccccc1COc1ccc(OC(C)C)cc1
90%: Pyricularia oryzae [16] | Podosphaera fuliginea [3] | Botrytis cinerea [9] | [30] | Thanatephorus cucumeris [29] | [22] | [31]

CNC(=O)/C(=N/OC)c1ccccc1COc1ccc(F)c(F)c1
90%: Pyricularia oryzae [16] | Podosphaera fuliginea [17] | Botrytis cinerea [9] | [24]
<90%: Thanatephorus cucumeris [10] | [5] | [25]

CNC(=O)/C(=N/OC)c1ccccc1COc1c(Cl)cc(Cl)cc1Cl
90%: Pyricularia oryzae [12] | Podosphaera fuliginea [23] | [24] | [31] | Botrytis cinerea [7]
<90%: Thanatephorus cucumeris [10] | [5]

CNC(=O)/C(=N/OC)c1ccccc1COc1cccc(-c2ccccc2)c1
90%: Pyricularia oryzae [2] | Podosphaera fuliginea [21] | Botrytis cinerea [13] | [30] | Thanatephorus cucumeris [29] | [11] | [14]

CNC(=O)/C(=N/OC)c1ccccc1COc1ccc(C)c(C)c1
90%: Pyricularia oryzae [8] | Podosphaera fuliginea [3] | Botrytis cinerea [9] | [4] | Thanatephorus cucumeris [10] | [5] | [14]

CNC(=O)/C(=N/OC)c1ccccc1COc1c(Cl)ccc(Cl)c1Cl
<90%: Thanatephorus cucumeris [10] | [5]
90%: Pyricularia oryzae [12] | Podosphaera fuliginea [23] | [28] | [31] | Botrytis cinerea [20]

CNC(=O)/C(=N/OC)c1ccccc1COc1ccc(Cl)cc1C
90%: Pyricularia oryzae [8] | Podosphaera fuliginea [21] | Botrytis cinerea [13] | [4] | Thanatephorus cucumeris [29] | [11] | [14]

CNC(=O)/C(=N/OC)c1ccccc1COc1cccc(N(C)C)c1
90%: Pyricularia oryzae [12] | [31] | Botrytis cinerea [7]
<90%: Podosphaera fuliginea [23] | [28] | Thanatephorus cucumeris [10] | [5]

CNC(=O)/C(=N\OC)c1ccccc1COc1ccccc1
<90%: Pyricularia oryzae [15] | Pyricularia oryzae [12] | [26] | Podosphaera fuliginea [27] | Botrytis cinerea [19] | Botrytis cinerea [20]
90%: Podosphaera fuliginea [23] | [28]

CNC(=O)/C(=N/OC)c1ccccc1COc1ccc(C#N)cc1
90%: [28] | [5] | [31] | Botrytis cinerea [7]
<90%: Pyricularia oryzae [12] | Podosphaera fuliginea [23] | Thanatephorus cucumeris [10]

CNC(=O)/C(=N\OC)c1ccccc1COc1ccc(Cl)cc1
90%: Podosphaera fuliginea [23] | [28]
<90%: Pyricularia oryzae [15] | Pyricularia oryzae [12] | [26] | Podosphaera fuliginea [27] | Botrytis cinerea [19] | Botrytis cinerea [20]

CNC(=O)/C(=N/OC)c1ccccc1COc1ccc(Cl)c(C)c1
90%: Pyricularia oryzae [8] | Podosphaera fuliginea [3] | Botrytis cinerea [9] | [4] | [11] | [14]
<90%: Thanatephorus cucumeris [10]

CO/N=C(/C(=O)NN)c1ccccc1COc1cc(C)ccc1C
<90%: Pyricularia oryzae [15] | Podosphaera fuliginea [27] | Botrytis cinerea [20]
90%: Pyricularia oryzae [12] | Podosphaera fuliginea [23]

CNC(=O)/C(=N/OC)c1ccccc1COc1ccccc1OC(C)C
<90%: [28] | Thanatephorus cucumeris [10] | [5] | Botrytis cinerea [20]
90%: Pyricularia oryzae [12] | Podosphaera fuliginea [23] | [31]

CNC(=O)/C(=N\OC)c1ccccc1COc1ccc(-c2ccccc2)cc1
90%: Podosphaera fuliginea [17] | [26]
<90%: Pyricularia oryzae [15] | Pyricularia oryzae [12] | Podosphaera fuliginea [27] | [28] | Botrytis cinerea [19] | Botrytis cinerea [20]

CNC(=O)/C(=N/OC)c1ccccc1COc1cc(C)cc(C)c1C
90%: Thanatephorus cucumeris [1] | Pyricularia oryzae [8] | Podosphaera fuliginea [21] | Botrytis cinerea [13] | [4] | [5] | [14]
